Values after ≈ are worked out from the molar mass of the structure shown.
Columns and labels:
Assay type in all cases: functional
[1] = system: Staphylococcus aureus; assay: Antibacterial activity against methicillin-resistant Staphylococcus aureus ATCC523512 assessed as bacterial growth inhibition after 24 hrs by broth dilution method; conditions: ATCC523512, 24 h
[2] = system: Proteus vulgaris; assay: Antibacterial activity against Proteus vulgaris ATCC49101 assessed as bacterial growth inhibition after 24 hrs by broth dilution method; conditions: ATCC49101, 24 h
[3] = system: Pseudomonas aeruginosa; assay: Antibacterial activity against Pseudomonas aeruginosa ATCC2785 assessed as bacterial growth inhibition after 24 hrs by broth dilution method; conditions: ATCC2785, 24 h
[4] = system: Staphylococcus aureus; assay: Antibacterial activity against methicillin-resistant Staphylococcus aureus ATCC515992 assessed as bacterial growth inhibition after 24 hrs by broth dilution method; conditions: ATCC515992, 24 h
[5] = system: Staphylococcus aureus; assay: Antibacterial activity against methicillin-resistant Staphylococcus aureus ATCC62202 assessed as bacterial growth inhibition after 24 hrs by broth dilution method; conditions: ATCC62202, 24 h
[6] = system: Bacillus subtilis; assay: Antibacterial activity against Bacillus subtilis ATCC6633 assessed as bacterial growth inhibition after 24 hrs by broth dilution method; conditions: ATCC6633, 24 h
[7] = system: Staphylococcus aureus; assay: Antibacterial activity against methicillin-resistant Staphylococcus aureus ATCC43300 assessed as bacterial growth inhibition after 24 hrs by broth dilution method; conditions: ATCC43300, 24 h
[8] = system: Staphylococcus epidermidis; assay: Antibacterial activity against Staphylococcus epidermidis ATCC12228 assessed as bacterial growth inhibition after 24 hrs by broth dilution method; conditions: ATCC12228, 24 h
[9] = system: Staphylococcus aureus; assay: Antibacterial activity against methicillin-resistant Staphylococcus aureus ATCC425055 assessed as bacterial growth inhibition after 24 hrs by broth dilution method; conditions: ATCC425055, 24 h
[10] = system: Staphylococcus aureus; assay: Antibacterial activity against methicillin-resistant Staphylococcus aureus ATCC513045 assessed as bacterial growth inhibition after 24 hrs by broth dilution method; conditions: ATCC513045, 24 h
[11] = system: Escherichia coli; assay: Antibacterial activity against Escherichia coli ATCC25922 assessed as bacterial growth inhibition after 24 hrs by broth dilution method; conditions: ATCC25922, 24 h
[12] = system: Staphylococcus aureus; assay: Antibacterial activity against methicillin-resistant Staphylococcus aureus ATCC52056 assessed as bacterial growth inhibition after 24 hrs by broth dilution method; conditions: ATCC52056, 24 h
[13] = system: Staphylococcus aureus; assay: Antibacterial activity against methicillin-resistant Staphylococcus aureus ATCC510019 assessed as bacterial growth inhibition after 24 hrs by broth dilution method; conditions: ATCC510019, 24 h
[14] = system: Staphylococcus aureus; assay: Antibacterial activity against methicillin-resistant Staphylococcus aureus ATCC51033 assessed as bacterial growth inhibition after 24 hrs by broth dilution method; conditions: ATCC51033, 24 h
[15] = system: Staphylococcus aureus; assay: Antibacterial activity against Staphylococcus aureus ATCC25923 assessed as bacterial growth inhibition after 24 hrs by broth dilution method; conditions: ATCC25923, 24 h

SMILES | MIC [1] [µg/mL] | MIC [2] [µg/mL] | MIC [3] [µg/mL] | MIC [4] [µg/mL] | MIC [5] [µg/mL] | MIC [6] [µg/mL] | MIC [7] [µg/mL] | MIC [8] [µg/mL] | MIC [9] [µg/mL] | MIC [10] [µg/mL] | MIC [11] [µg/mL] | MIC [12] [µg/mL] | MIC [13] [µg/mL] | MIC [14] [µg/mL] | MIC [15] [µg/mL]
COc1cc(C)c(C(=O)O)c(O)c1CC=C(C)C | 32 (≈ 128 µM) | > 128 | > 128 | 32 (≈ 128 µM) | 32 (≈ 128 µM) | 64 (≈ 256 µM) | 32 (≈ 128 µM) | 64 (≈ 256 µM) | 32 (≈ 128 µM) | 32 (≈ 128 µM) | > 128 | 64 (≈ 256 µM) | 64 (≈ 256 µM) | 32 (≈ 128 µM) | 32 (≈ 128 µM)
COC(=O)c1c(/C=C/c2cccc(F)c2)cc(OC)c(CC=C(C)C)c1O | 64 (≈ 173 µM) | > 128 | > 128 | > 128 | 128 (≈ 346 µM) | 128 (≈ 346 µM) | > 128 | > 128 | > 128 | 128 (≈ 346 µM) | > 128 | > 128 | 128 (≈ 346 µM) | 128 (≈ 346 µM) | 64 (≈ 173 µM)
COC(=O)c1c(/C=C/c2ccccc2F)cc(OC)c(CC=C(C)C)c1O | > 128 | > 128 | > 128 | > 128 | 128 (≈ 346 µM) | > 128 | 128 (≈ 346 µM) | > 128 | 128 (≈ 346 µM) | 128 (≈ 346 µM) | > 128 | > 128 | > 128 | > 128 | > 128
COc1cc(/C=C/c2ccccc2)c(C(=O)O)c(O)c1CC=C(C)C | 32 (≈ 94.6 µM) | > 64 | > 64 | 32 (≈ 94.6 µM) | 8 (≈ 23.6 µM) | 32 (≈ 94.6 µM) | 16 (≈ 47.3 µM) | 16 (≈ 47.3 µM) | 16 (≈ 47.3 µM) | 16 (≈ 47.3 µM) | > 128 | 16 (≈ 47.3 µM) | 32 (≈ 94.6 µM) | 16 (≈ 47.3 µM) | 16 (≈ 47.3 µM)
COc1cc(O)c(C(=O)O)c(/C=C/c2cccc(F)c2)c1 | 128 (≈ 444 µM) | > 128 | > 128 | > 128 | > 128 | > 128 | > 128 | 64 (≈ 222 µM) | > 128 | > 128 | > 128 | > 128 | > 128 | > 128 | > 128
COC(=O)c1c(/C=C/c2ccc(OC)cc2)cc(OC)c(CC=C(C)C)c1O | 128 (≈ 335 µM) | > 128 | > 128 | > 128 | > 128 | > 128 | 128 (≈ 335 µM) | > 128 | 128 (≈ 335 µM) | 128 (≈ 335 µM) | > 128 | 128 (≈ 335 µM) | 128 (≈ 335 µM) | > 128 | 128 (≈ 335 µM)
COC(=O)c1c(/C=C/c2cc(OC)c(OC)c(OC)c2)cc(OC)c(CC=C(C)C)c1O | > 128 | > 128 | > 128 | 64 (≈ 145 µM) | > 128 | > 128 | > 128 | 64 (≈ 145 µM) | > 128 | > 128 | > 128 | > 128 | > 128 | 128 (≈ 289 µM) | > 128
CCn1cc(C(=O)O)c(=O)c2cc(F)c(N3CCNCC3)cc21 [NORFLOXACIN] | 8 (≈ 25.1 µM) | 16 (≈ 50.1 µM) | 16 (≈ 50.1 µM) | 16 (≈ 50.1 µM) | 8 (≈ 25.1 µM) | 2 (≈ 6.26 µM) | 4 (≈ 12.5 µM) | 2 (≈ 6.26 µM) | 4 (≈ 12.5 µM) | 4 (≈ 12.5 µM) | 32 (≈ 100 µM) | 8 (≈ 25.1 µM) | 8 (≈ 25.1 µM) | 4 (≈ 12.5 µM) | 2 (≈ 6.26 µM)
COc1cc(/C=C/c2cc(OC)c(OC)c(OC)c2)c(C(=O)O)c(O)c1CC=C(C)C | 16 (≈ 37.3 µM) | > 64 | > 64 | 16 (≈ 37.3 µM) | 32 (≈ 74.7 µM) | 16 (≈ 37.3 µM) | 16 (≈ 37.3 µM) | 32 (≈ 74.7 µM) | 16 (≈ 37.3 µM) | 16 (≈ 37.3 µM) | > 128 | 32 (≈ 74.7 µM) | 16 (≈ 37.3 µM) | 64 (≈ 149 µM) | 64 (≈ 149 µM)
COc1cc(/C=C/c2cccc(C#N)c2)c(C(=O)O)c(O)c1CC=C(C)C | 2 (≈ 5.5 µM) | > 64 | > 64 | 2 (≈ 5.5 µM) | 0.5 (≈ 1.38 µM) | 16 (≈ 44 µM) | 8 (≈ 22 µM) | 2 (≈ 5.5 µM) | 1 (≈ 2.75 µM) | 4 (≈ 11 µM) | > 128 | 4 (≈ 11 µM) | 2 (≈ 5.5 µM) | 2 (≈ 5.5 µM) | 4 (≈ 11 µM)
COc1ccc(/C=C/c2cc(OC)cc(O)c2C(=O)O)cc1 | > 128 | > 128 | > 128 | > 128 | > 128 | 64 (≈ 213 µM) | > 128 | > 128 | > 128 | > 128 | > 128 | > 128 | > 128 | > 128 | > 128
COC(=O)c1c(/C=C/c2ccc(C(F)(F)F)cc2)cc(OC)c(CC=C(C)C)c1O | 64 (≈ 152 µM) | > 128 | > 128 | > 128 | 128 (≈ 304 µM) | 128 (≈ 304 µM) | > 128 | 64 (≈ 152 µM) | 64 (≈ 152 µM) | 128 (≈ 304 µM) | > 128 | 128 (≈ 304 µM) | > 128 | > 128 | 64 (≈ 152 µM)
COC(=O)c1c(O)cc(OC)cc1/C=C/c1cc(OC)c(OC)c(OC)c1 | > 128 | > 128 | > 128 | 64 (≈ 171 µM) | > 128 | > 128 | > 128 | > 128 | > 128 | > 128 | > 128 | > 128 | > 128 | 128 (≈ 342 µM) | > 128
COc1ccc(/C=C/c2cc(OC)c(CC=C(C)C)c(O)c2C(=O)O)cc1 | 16 (≈ 43.4 µM) | > 64 | > 64 | 16 (≈ 43.4 µM) | 16 (≈ 43.4 µM) | 16 (≈ 43.4 µM) | 16 (≈ 43.4 µM) | 32 (≈ 86.9 µM) | 8 (≈ 21.7 µM) | 16 (≈ 43.4 µM) | > 128 | 16 (≈ 43.4 µM) | 16 (≈ 43.4 µM) | 32 (≈ 86.9 µM) | 32 (≈ 86.9 µM)
COC(=O)c1c(O)cc(OC)cc1/C=C/c1ccc(C(F)(F)F)cc1 | > 128 | > 128 | > 128 | > 128 | > 128 | > 128 | > 128 | 128 (≈ 363 µM) | > 128 | 128 (≈ 363 µM) | > 128 | > 128 | > 128 | > 128 | > 128

Reference: ChEMBL document CHEMBL3596195, “Novel cajaninstilbene acid derivatives as antibacterial agents” (Eur J Med Chem, 2015)
